Test results: patent publication US6492414B1, “Methods and compositions for the treatment and prevention of lung disease” (Allergan, Inc., priority 1999, dated 2002)

How the values were obtained:
[1] = tested on: rats treated with elastase; settings: cited from earlier work
[2] = tested on: newborn rats; settings: cited from earlier work
[3] = tested on: all RAR isotypes; settings: cited from earlier work
[4] = tested on: Sprague-Dawley rat pups; test: Alveolus formation (septation) in newborn rat pups, daily intraperitoneal injection, lung histology and morphometry; type: in vivo
Description: This retinoid, termed AGN 193174, has a structure defined by the formula [drawing 1]
Following sacrifice, rat lungs were fixed and histological sections prepared essentially as described in Massaro et al., Am. J. Physiol. 270: L305 (1996), incorporated by reference herein. The histological sections were viewed and photographs taken under light microscopy.
The differences in alveolar dimensions between =treated and untreated rat pups were so pronounced, they were quantitated by measuring the distance between alveolar walls (Lm) and the surface-to-volume ratio (S/V) of the gas-exchange structures (septa). The Lm in cottonseed oil-treated rats was 80 μm±2.8 μm (N=4) compared to 110 μm±7.3 μm (N=3) in RARβ agonist-treated rats (N=3; P=0.03 by Mann Whitney nonparametric analysis). The S/V was 504 μm^−1±18 μm^−1(N=4) in cottonseed oil-treated rats compared to 365 μm^−1±23 μm^−1(N=3) in RARβ agonist-treated rats (P=0.03).

[5] = tested on: RARβ; test: RAR isotype activity stated for the retinoid ligand (RARβ)
[6] = target: T1, RARγ (Homo sapiens, UniProt P13631); test: RAR isotype activity stated for the retinoid ligand (RARγ)
T1 sequence (P13631 1-454): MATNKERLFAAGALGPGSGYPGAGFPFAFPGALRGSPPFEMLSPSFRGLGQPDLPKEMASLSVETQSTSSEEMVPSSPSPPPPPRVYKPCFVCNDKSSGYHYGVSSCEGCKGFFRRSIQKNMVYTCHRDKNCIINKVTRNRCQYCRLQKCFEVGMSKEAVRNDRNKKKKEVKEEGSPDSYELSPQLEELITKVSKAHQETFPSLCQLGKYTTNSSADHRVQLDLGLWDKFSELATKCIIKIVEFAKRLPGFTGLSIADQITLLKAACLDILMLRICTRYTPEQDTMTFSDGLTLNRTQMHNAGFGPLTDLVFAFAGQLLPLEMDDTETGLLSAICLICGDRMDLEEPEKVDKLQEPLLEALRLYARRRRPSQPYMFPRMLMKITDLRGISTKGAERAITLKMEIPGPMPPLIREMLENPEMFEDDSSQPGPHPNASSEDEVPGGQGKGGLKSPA

[7] = tested on: RAR receptors; test: Receptor class specificity, RAR versus RXR

## CC1=C(/C=C/C(C)=C/C=C/C(C)=C/C(=O)O)C(C)(C)CCC1 [ATRA, all-trans-retinoic acid]
[1]
  effect on elastase-induced destruction of alveolar walls: appeared to reverse this destruction
[2]
  effect on number of alveoli: induced the formation of an increased number of alveoli in rats without enlarging the lung
[3]
  agonist activity at RAR isotypes: an agonist of all RAR isotypes

## CC1(C)CC=C(c2cccs2)c2cc(C#Cc3ccc(C(=O)O)cc3)ccc21 [AGN 193174]
[4]; age 14 days, treated daily from age 3 through 13 days, FIGS. 1A and 1B
  alveolar size and degree of septation in histological sections versus cottonseed oil alone: alveoli were larger, and the degree of sepatation less
[4]; rat pups, 500 micrograms per kg i.p. daily from age 3 to 13 days
  Lung volume versus cottonseed oil-treated rats: the same in both rat groups
[5]
  activity at RARβ (agonist): RARβ agonist activity
  activity at RARβ (antagonist (so in the source)): antagonist activity
[6]
  activity at RARγ: antagonist activity
[7]
  specificity RAR versus RXR receptors: specific to RAR receptors and not to RXR receptors
